Source: patent US20050228019A1, “Enhancement of ampakine-Induced facilitation of synaptic responses by cholinesterase inhibitors” (priority 2004, published 2005)
Where “and” joins values, the source holds several entries; their conditions need not be identical. Equal values may be shown once. Entries after “also recorded” stand apart in the source; their conditions may differ.

Experiments:
[1] = system: lateral perforant path EPSPs in hippocampal slices; test: Lateral perforant path EPSPs in hippocampal slices; type: cell-based, Sprague-Dawley rats
Procedure: Hippocamlpal slice preparation: Hippocampal slices were prepared from male Sprague-Dawley rats, approximately 4-6 weeks of age. Rats were anesthetized with halothane and then sacrificed via decapitation. The brain was quickly removed and placed in icy, oxygenated artificial cerebrospinal fluid (ACSF) of the following composition for dissection (in mM): 124 NaCl, 3 KCl 1.25 KH2PO4, 5 MgSO4, 3.4 CaCl2, 10 D-glucose, 26 NaHCO3. A tissue block containing the hippocampus and surrounding tissue was prepared and glued to the stage of a vibrating tissue slicer (Leica VT1000; Bannockburn, Ill.). Slices were cut roughly perpendicular to the longitudinal axis of the hippocampus at a thickness of 350 μm. Slices were then immediately transferred to an interface recording chamber containing ACSF with the same constituents as described above except that the concentration of MgSO4 was lowered to 2.5 mM. Recording commenced after a recovery period that was ≧1 hour.
In vitro recording: Slices in the interface chamber were maintained at 32±1° C. and continuously perfused with oxygenated recording ACSF at a rate of 60 ml/hr. Additionally, warmed and humidified 95% O2/5% CO2 was blown into the chamber from above. The lateral perforant path was stimulated with twisted nichrome wire (65 μm) in the outer molecular layer of the dentate gyrus. A chloride-coated silver wire was placed in a single glass pipette filled with 2 M NaCl (˜5 MΩ resistance) for recording of field potentials. The recording electrode was also placed in the outer molecular layer of the dentate gyrus to sample the perforant path synapses. Stimulation intensity was adjusted to elicit responses that were typically 1-2 mV in amplitude and ≦50% of the maximal monophasic response. Evoked responses were recorded at 10 kHz using a differential AC amplifier (A-M Systems Model 1700; Carlsborg, Wash.). Baseline responses were monitored every 20 seconds for a minimum of 30 minutes, depending on the length of time necessary to achieve stability.
Drug application: AChE inhibitors enhance transmission at cholinergic synapses by blocking the enzyme that degrades the released transmitter acetylcholine. This causes acetylcholine to remain at relatively high concentrations for a longer period within the synapse and thereby exert a greater than normal effect on acetylcholine receptors. This greater than normal action on acetylcholine receptors can be partially mimicked by applying a compound that directly stimulates the receptors to a degree that is greater than that produced by normally released acetylcholine. […] The effect of each of these treatments on amplitude size and slope of the descending phase of the response waveform was continuously recorded online throughout the entirety of the experiment.

[2] = system: monosynaptic responses (field EPSPs) known to be mediated by AMPA receptors; test: Chronic recording of evoked field EPSPs in freely moving rats (brain area not specified); type: in vivo, Long-Evans rats; details: CX717 10 mg/kg ip alone
Procedure: (§1) Chronic recording preparation: Adult male Long-Evans rats with recording and stimulating electrodes chronically implanted into different areas of the brain known to subserve memory were used. The electrodes were stereotaxically inserted under pentobarbital anesthesia (65 mg/kg), using procedures essentially as described in earlier work (Stäubli and Xu, Journal of Neuroscience 15: 2445-2452, 1995; Stäubli and Scafidi, Journal of Neuroscience 17: 4820-4828, 1997). Briefly, monopolar stimulating electrodes (125 μm) were placed into the perforant path projections to hippocampal dentate gyrus and into the lateral olfactory tract projections to olfactory cortex. Following these steps, the leads of the electrodes were connected to a headstage that is permanently affixed to the rat's skull.
(§2) The animals were allowed approximately 10 days for recovery before being acclimated to a chronic recording cage (30×30×58 cm) and the attachment of a recording lead to their headstage. Biphasic stimulation pulses were provided by a digital stimulator that allows precise control of current intensity and pulse duration. […] The evoked responses were monitored on a storage oscilloscope and digitized at 10 kHz. The peak amplitude, half-width and area of each response were measured on-line and stored on disk for off-line analysis. […]

[3] = system: lateral olfactory tract (LOT) evoked responses; test: Lateral olfactory tract (LOT) evoked responses in awake rats; type: in vivo, Long-Evans rats
Procedure: as §1
The animals were allowed approximately 10 days for recovery before being acclimated to a chronic recording cage (30×30×58 cm) and the attachment of a recording lead to their headstage. Biphasic stimulation pulses were provided by a digital stimulator that allows precise control of current intensity and pulse duration. Current intensity (10-80 μA) and pulse width (100-150 μsec) were adjusted to produce an evoked field excitatory postsynaptic potential (evoked fEPSP) that is 50-60% of the maximum amplitude of the population spike-free response which typically ranges between 3 and 7 mV. Recording signals were pre-amplified 10× via a FET operational amplifier built into the recording lead and fed into a second stage amplifier set to a gain of 10, with a band-pass of 1 Hz to 5 kHz. The evoked responses were monitored on a storage oscilloscope and digitized at 10 kHz. The peak amplitude, half-width and area of each response were measured on-line and stored on disk for off-line analysis. Baseline evoked EPSPs were tested at 20 sec intervals for a minimum of 30 to 45 min, or until stable (<10% variability in amplitude). The animal was free to move around the cage throughout the experiment, but was not allowed to fall asleep.
Drug Testing: Once baseline stability was established over at least 30 min, the animal was given an intraperitoneal injection of 1) Ampakine compound alone (e.g., CX717 at 10 mg/kg), or 2) acetylcholinesterase (AChE) inhibitor alone (e.g., physostigmine at 0.1 mg/kg, tacrin at 1 mg/kg, galantamine at 1 mg/kg or donezepil at 1.5 mg/kg) or 3) Ampakine compound plus AChE inhibitor combined, both administered at the same time and at the same dose as when given alone. Each rat received each of these three treatments, but only one treatment was given per day, with several days separating successive treatments. The effect of each of these treatments on amplitude size, halfwidth and area of the field EPSP was continuously recorded for several hours after injection.

[4] = system: perforant path evoked responses in the dentate gyrus; test: Perforant path evoked responses in the dentate gyrus of awake rats; type: in vivo, Long-Evans rats
Procedure: as §1, §2

[5] = CX717 10 mg/kg co-administered ip with physostigmine 0.1 mg/kg

| SMILES | EPSP amplitude ([1]; CCh 0.5 μM alone, 20-30 minutes after the start of infusion) | effect on lateral perforant path EPSPs (amplitude or slope) ([1]; CCh 0.5 μM by itself) | increase in amplitude of field EPSP [2] | LOT effect relative to CX717 alone [3, 5] | increase in LOT response amplitude above baseline [3, 5] | LOT effect relative to CX717 alone ([3]; CX717 10 mg/kg co-injected ip with Aricept 1.5 mg/kg) | LOT effect relative to CX717 alone ([3]; CX717 10 mg/kg co-injected ip with tacrine 1 mg/kg) | increase in LOT response amplitude ([3]; CX717 10 mg/kg ip alone, 10 mg/kg) | perforant path effect relative to CX717 alone ([4]; CX717 10 mg/kg co-injected ip with physostigmine 0.1 mg/kg) | increase in perforant path evoked responses on co-administration ([4]; CX717 with galantamine 1 mg/kg, data not shown) | response amplitude ([1]; CX717 40 μM alone, 30 min infusion, last 10 minutes of drug infusion) | increase in response size relative to CX717 alone ([1]; CX717 40 μM in the presence of 0.5 μM CCh) |
| --- | --- | --- | --- | --- | --- | --- | --- | --- | --- | --- | --- | --- |
| C[N+](C)(C)CCOC(N)=O [CCh, carbachol] | 99.8±2.9 % of baseline | no discernible effects; also recorded: did not detectably affect synaptic transmission; also recorded: did not affect the amplitude or slope of evoked responses | – | – | – | – | – | – | – | – | – | – |
| O=C(c1ccc2nonc2c1)N1CCOCC1 [CX717] | – | – | 5+1% | several times greater than the effects it produced on its own; also recorded: approximately three-fold greater | 20-30% | several times greater than the effects it produced on its own; also recorded: approximately two-fold greater | several times greater than the effects it produced on its own; also recorded: more than two times greater | ~5% and < 10% | significantly higher than the effects of CX717 alone | Effects of this kind were also obtained | 103.5±1.0 % of baseline | several fold greater; also recorded: significantly greater than those observed in the absence of CCh |
